In PubChem BioAssay (NCI):
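Cultured in 96-well plates, cells were exposed to test compound for 48 hours across five concentrations. The concentration for 50% growth inhibition is given as GI50. TGI: concentration producing complete growth inhibition.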 Peptide text beside a SMILES is read from it. * marks the point of attachment. X34 = O=C(c1ccc(-c2ccc(Cl)cc2Cl)o1)*

Experiments:
Assay in all cases: NCI-60 cell line screen, 48 h
MCF7 breast = test system: MCF7 breast
HOP-92 NSCLC = test system: HOP-92 NSCLC
HOP-62 NSCLC = test system: HOP-62 NSCLC
NCI-H522 lung = test system: NCI-H522 lung
HCC-2998 colon = test system: HCC-2998 colon
A549 NSCLC = test system: A549 NSCLC
SNB-75 CNS = test system: SNB-75 CNS
NCI-H460 lung = test system: NCI-H460 lung
IGROV1 ovarian = test system: IGROV1 ovarian
RXF 393 renal = test system: RXF 393 renal
HCT-116 colon = test system: HCT-116 colon

| SMILES | TGI (MCF7 breast) [µM] | GI50 (HOP-92 NSCLC) [µM] | TGI (HOP-92 NSCLC) [µM] | GI50 (HOP-62 NSCLC) [µM] | TGI (HOP-62 NSCLC) [µM] | TGI (NCI-H522 lung) [µM] | GI50 (HCC-2998 colon) [µM] | TGI (HCC-2998 colon) [µM] | GI50 (A549 NSCLC) [µM] | TGI (A549 NSCLC) [µM] | GI50 (SNB-75 CNS) [µM] | TGI (SNB-75 CNS) [µM] | GI50 (NCI-H460 lung) [µM] | TGI (NCI-H460 lung) [µM] | GI50 (IGROV1 ovarian) [µM] | TGI (IGROV1 ovarian) [µM] | GI50 (RXF 393 renal) [µM] | TGI (RXF 393 renal) [µM] | GI50 (HCT-116 colon) [µM] | TGI (HCT-116 colon) [µM] |
| --- | --- | --- | --- | --- | --- | --- | --- | --- | --- | --- | --- | --- | --- | --- | --- | --- | --- | --- | --- | --- |
| COc1cc2c3c(n(CCCn4cncn4)c(=O)c2cc1OC)-c1cc2c(cc1C3=O)OCO2 | > 100 | 0.935 | 38.6 | < 0.0283 | 59 | > 100 | 16.6 | > 100 | 16.3 | > 100 | 0.799 | 99.1 | < 0.01 | > 100 | 10.9 | > 100 | 11.9 | > 100 | 0.567 | > 100 |
| COc1ccc(C(=O)c2nc3ccccc3nc2N2CCN(c3ccccc3)CC2)cc1OC | > 100 |  | > 100 |  | > 100 | > 100 |  | > 100 |  | > 100 |  | > 100 |  | > 100 |  | > 100 |  | > 100 |  | > 100 |
| COC(=O)C(CC(C)C)NC(=O)C(Cc1ccccc1)NC(=O)C1CCCN1C(=O)C(CO)NC(=O)c1ccc(-c2ccc(Cl)cc2Cl)o1 (centres undefined) (X34-SPFL-OMe; configuration not given here) | > 100 |  | 63.9 |  |  | > 100 |  | 27.4 |  | 91.2 |  | 88.8 |  | 38.9 |  |  |  | 44.7 |  | 92.1 |
| COc1nc2ccc(CNc3ccc(C(=O)NC(CCC(=O)O)C(=O)O)cc3)cc2nc1OC (centres undefined) | > 100 |  |  |  | > 100 | > 100 |  | > 100 |  | > 100 |  | > 100 |  | > 100 |  | > 100 |  | > 100 |  |  |
| O=Cc1ccccc1CCn1c(=O)c2cc3c(=O)n(CCc4ccccc4C=O)c(=O)c3cc2c1=O |  |  |  |  |  | > 100 |  |  |  | > 100 |  | > 100 |  | > 100 |  | > 100 |  | > 100 |  | > 100 |
| CN1c2c(nc(N)[nH]c2=O)NCC1CCNc1ccc(C(=O)NC(CCC(=O)O)C(=O)O)cc1 (centres undefined) | 2030 |  | 2900 |  | 1930 | 2470 |  | 2080 |  | 2620 |  | 2660 |  | 1570 |  | 2470 |  | 2490 |  | 1390 |
| O=c1oc2cc(O)ccc2c2oc3cc(O)ccc3c12 | 122 |  | > 125 |  | 54.1 | 31.9 |  | > 118 |  | 125 |  | > 125 |  | > 113 |  | > 125 |  | 124 |  | 70.2 |
| CC(=O)OC12CC[N+]3(C)CCCCC3C1=Nc1ccccc12 (centres undefined) | > 100 |  | > 100 |  | > 100 | > 100 |  |  |  | > 100 |  | > 100 |  | > 100 |  | > 100 |  | > 100 |  | > 100 |
| Nc1nc(SCCNC(=O)CCc2ccc(O)c(I)c2)nc2c1ncn2C1OC(CO)C(O)C1O (centres undefined) |  |  | > 100 |  | > 100 | > 100 |  | > 100 |  | > 100 |  | > 100 |  | > 100 |  | > 100 |  | > 100 |  | > 100 |
| CCOc1ccccc1Nc1ccc(N)cc1S(=O)(=O)O |  |  | > 100 |  | > 100 | > 100 |  | > 100 |  | > 100 |  | > 100 |  | > 100 |  | > 100 |  | > 100 |  | > 100 |
| CC[C@@H]1CSC(/C=C/C2OC3OC(C)(C)OC3C3OC(C)(C)OC23)=N1 (some centres undefined) | 16.8 |  | 19.2 |  | 59.4 | 12.1 |  | 12.7 |  | 49.6 |  | 29.6 |  | 61.2 |  | 26 |  | 9.59 |  | 14.2 |
